From ChEMBL document CHEMBL4041467, “Synthesis of novel 15-membered 8a-azahomoerythromycin A acylides: Consequences of structural modification at the C-3 and C-6 position on antibacterial activity” (Eur J Med Chem, 2017)
Converted amounts (≈) assume the structure as drawn.

Experiments:
[1] = Metabolic stability in rat liver microsomes assessed as parent compound remaining at 1 uM after 60 mins in presence of NADP by LC-MS/MS analysis; format: ADME, microsome; settings: read-out: Stability
Plasma [2] = assay: Stability in rat plasma at 1 uM up to 120 mins by LC-MS/MS analysis; format: ADME, cell-free; settings: 2 h
Streptococcus pyogenes [3] = assay: Antibacterial activity against Mef-mediated macrolide efflux resistant Streptococcus pyogenes by agar microdilution method; format: functional
[4] = Cmax in Han Wistar rat at 30 mg/kg, po by LC-MS/MS analysis; format: ADME, organism-based; design: dose 30 mg/kg, route oral; settings: in vivo
[5] = Clearance in Han Wistar rat at 10 mg/kg, iv by LC-MS/MS analysis; format: ADME, organism-based; settings: in vivo
[6] = Volume of distribution at steady state in Han Wistar rat at 10 mg/kg, iv by LC-MS/MS analysis; format: ADME, organism-based; settings: in vivo, read-out: Vdss
Streptococcus pneumoniae [7] = assay: Antibacterial activity against erythromycin susceptible Streptococcus pneumoniae infected in mouse assessed as increase in mouse survival administered orally 1 hr post infection; format: functional; settings: po
[8] = Protein binding in rat plasma at 1 ug/ml by LC-MS/MS analysis; format: ADME, cell-free; settings: read-out: PPB (converted)
Rattus norvegicus = assay: Unbound clearance in Han Wistar rat at 10 mg/kg, iv by LC-MS/MS analysis; format: ADME, organism-based; settings: in vivo
Staphylococcus aureus [9] = assay: Antibacterial activity against inducibly macrolide/lincosamide/streptogramin B-resistant Staphylococcus aureus by agar microdilution method; format: functional
[10] = Fraction unbound in Han Wistar rat plasma at 10 mg/kg, iv by LC-MS/MS analysis; format: ADME, organism-based
Staphylococcus aureus [11] = assay: Antibacterial activity against erythromycin susceptible Staphylococcus aureus by agar microdilution method; format: functional
Streptococcus pyogenes [12] = assay: Antibacterial activity against erythromycin susceptible Streptococcus pyogenes by agar microdilution method; format: functional
Liver [13] = assay: Intrinsic clearance in rat liver microsomes at 1 uM after 60 mins in presence of NADP by LC-MS/MS analysis; format: ADME, microsome; settings: 1 h
[14] = AUC(0 to t) in Han Wistar rat at 30 mg/kg, po by LC-MS/MS analysis; format: ADME, organism-based; settings: in vivo
[15] = (§1) Protein binding in human plasma at 1 ug/ml by LC-MS/MS analysis; format: ADME, cell-free; settings: read-out: PPB (converted)
[16] = AUC(0 to infinity) in Han Wistar rat at 10 mg/kg, iv by LC-MS/MS analysis; format: ADME, organism-based; design: dose 10 mg/kg, route intravenous, time infinity; settings: in vivo
Plasma [17] = assay: Drug uptake in Han Wistar rat plasma at 30 mg/kg, po up to 4 hrs by LC-MS/MS analysis; format: ADME, organism-based; settings: in vivo
[18] = Protein binding in mouse plasma at 1 ug/ml by LC-MS/MS analysis; format: ADME, cell-free; settings: read-out: PPB (converted)
[19] = Metabolic stability in human liver microsomes assessed as parent compound remaining at 1 uM after 60 mins in presence of NADP by LC-MS/MS analysis; format: ADME, microsome; settings: read-out: Stability
Streptococcus pneumoniae [20] = assay: Antibacterial activity against constitutively macrolide/lincosamide/streptogramin B-resistant Streptococcus pneumoniae by agar microdilution method; format: functional
[21] = AUC(0 to t) in Han Wistar rat at 10 mg/kg, iv by LC-MS/MS analysis; format: ADME, organism-based; settings: in vivo
Staphylococcus aureus [22] = assay: Antibacterial activity against constitutively macrolide/lincosamide/streptogramin B-resistant Staphylococcus aureus by agar microdilution method; format: functional
[23] = AUC(0 to infinity) in Han Wistar rat at 30 mg/kg, po by LC-MS/MS analysis; format: ADME, organism-based; design: dose 30 mg/kg, time infinity, route oral; settings: in vivo
[24] = Terminal half life in Han Wistar rat at 10 mg/kg, iv by LC-MS/MS analysis; format: ADME, organism-based; settings: in vivo, read-out: beta t1/2 (converted)
[25] = Tmax in Han Wistar rat at 30 mg/kg, po by LC-MS/MS analysis; format: ADME, organism-based; settings: in vivo
[26] = Cmax in Han Wistar rat at 10 mg/kg, iv by LC-MS/MS analysis; format: ADME, organism-based; design: dose 10 mg/kg, route intravenous; settings: in vivo
Plasma [27] = assay: Drug uptake in Han Wistar rat plasma at 10 mg/kg, iv up to 8 hrs by LC-MS/MS analysis; format: ADME, organism-based; settings: in vivo
Haemophilus influenzae = assay: Antibacterial activity against Haemophilus influenzae by agar microdilution method; format: functional
Liver [28] = assay: Intrinsic clearance in human liver microsomes at 1 uM after 60 mins in presence of NADP by LC-MS/MS analysis; format: ADME, microsome; settings: 1 h
Streptococcus pyogenes [29] = assay: Antibacterial activity against constitutively macrolide/lincosamide/streptogramin B-resistant Streptococcus pyogenes by agar microdilution method; format: functional
Staphylococcus aureus [30] = assay: Antibacterial activity against erythromycin susceptible Staphylococcus aureus infected in mouse assessed as increase in mouse survival administered orally 1 hr post infection; format: functional; settings: po
[31] = Metabolic stability in mouse liver microsomes assessed as parent compound remaining at 1 uM after 60 mins in presence of NADP by LC-MS/MS analysis; format: ADME, microsome; settings: read-out: Stability
Liver [32] = assay: Intrinsic clearance in mouse liver microsomes at 1 uM after 60 mins in presence of NADP by LC-MS/MS analysis; format: ADME, microsome; settings: 1 h
Streptococcus pneumoniae [33] = assay: Antibacterial activity against erythromycin susceptible Streptococcus pneumoniae by agar microdilution method; format: functional
[34] = Oral bioavailability in Han Wistar rat at 30 mg/kg by LC-MS/MS analysis; format: ADME, organism-based; settings: in vivo
Streptococcus pneumoniae [35] = assay: Antibacterial activity against Mef-mediated macrolide efflux resistant Streptococcus pneumoniae by agar microdilution method; format: functional
Staphylococcus aureus [36] = assay: Ratio of MIC for inducibly macrolide/lincosamide/streptogramin B-resistant Staphylococcus aureus to MIC for erythromycin susceptible Staphylococcus aureus; format: functional
Plasma [37] = assay: as §1; format: ADME, cell-free
[38] = Oral bioavailability in Han Wistar rat at 20 mg/kg by LC-MS/MS analysis; format: ADME, organism-based; settings: in vivo
[39] = AUC(0 to infinity) in Han Wistar rat at 20 mg/kg, po by LC-MS/MS analysis; format: ADME, organism-based; design: dose 20 mg/kg, time infinity, route oral; settings: in vivo
[40] = Tmax in Han Wistar rat at 20 mg/kg, po by LC-MS/MS analysis; format: ADME, organism-based; settings: in vivo
[41] = Cmax in Han Wistar rat at 20 mg/kg, po by LC-MS/MS analysis; format: ADME, organism-based; design: dose 20 mg/kg, route oral; settings: in vivo

Row | Structure (SMILES) | remaining at 1 h, 1 µM [1] [%] | MIC (Streptococcus pyogenes [3]) [µg/mL] | clearance [5] [mL/min/kg] | Vd [6] [L/kg] | ED50 (Streptococcus pneumoniae [7]) [mg/kg] | fraction unbound at 1 ug/ml [8] | CL free (Rattus norvegicus) [mL/min/kg] | MIC (Staphylococcus aureus [9]) [µg/mL] | MIC (Staphylococcus aureus [11]) [µg/mL] | MIC (Streptococcus pyogenes [12]) [µg/mL] | fraction unbound at 1 ug/ml [15] | fraction unbound at 1 ug/ml [18] | remaining at 1 h, 1 µM [19] [%] | MIC (Streptococcus pneumoniae [20]) [µg/mL] | MIC (Staphylococcus aureus [22]) [µg/mL] | MIC (Haemophilus influenzae) [µg/mL] | MIC (Streptococcus pyogenes [29]) [µg/mL] | ED50 (Staphylococcus aureus [30]) [mg/kg] | remaining at 1 h, 1 µM [31] [%] | MIC (Streptococcus pneumoniae [33]) [µg/mL] | other results
1 | C=CCO[C@]1(C)C[C@@H](C)NC(=O)[C@H](C)[C@@H](O)[C@](C)(O)[C@@H](CC)OC(=O)[C@H](C)[C@@H](OC(=O)CCNCCNc2cc3c(=O)c(C(=O)O)cn(C4CC4)c3cc2Cl)[C@H](C)[C@H]1O[C@@H]1O[C@H](C)C[C@H](N(C)C)[C@H]1O | 100 | 0.25 (≈ 0.248 µM) | 44.7 | 3.2 | 46.5 | 0.63 | 71 | 0.25 (≈ 0.248 µM) | ≤ 0.125 | ≤ 0.125 | 0.51 | 0.45 | 99 | 1 (≈ 0.993 µM) | > 64 | 2 (≈ 1.99 µM) | 4 (≈ 3.97 µM) | 26.5 | 100 | ≤ 0.125 | Stability (Plasma [2]): Stable; Cmax [4]: 440 ng/mL; fraction unbound [10]: 0.63; CLH (Liver [13]): < 0.6 mL/min/g; AUC(0-t) [14]: 50 to 520 ng·h/mL; AUC(0-inf) [16]: 4080 ng·h/mL; Drug uptake (Plasma [17]): Active; AUC(0-t) [21]: 2450 to 5340 ng·h/mL; AUC(0-inf) [23]: 510 ng·h/mL; half-life [24]: 1.6 h; Tmax [25]: 0.31 h; Cmax [26]: 3870 ng/mL; Drug uptake (Plasma [27]): Active; CLH (Liver [28]): < 0.6 mL/min/g; CLH (Liver [32]): < 0.6 mL/min/g; bioavailability [34]: 4.9%
2 | CC[C@H]1OC(=O)[C@H](C)[C@@H](O[C@H]2C[C@@](C)(OC)[C@@H](O)[C@H](C)O2)[C@H](C)[C@@H](O[C@@H]2O[C@H](C)C[C@H](N(C)C)[C@H]2O)[C@](C)(O)C[C@@H](C)CN(C)[C@H](C)[C@@H](O)[C@]1(C)O [AZITHROMYCIN] | 100 | 1 (≈ 1.34 µM) | – | – | – | 0.72 | – | > 64 | 1 (≈ 1.34 µM) | ≤ 0.125 | 0.64 | 0.73 | 100 | > 64 | > 64 | 1 (≈ 1.34 µM) | > 64 | – | 100 | ≤ 0.125 | MIC (Streptococcus pneumoniae [35]): 4 µg/mL (≈ 5.34 µM); Ratio (Staphylococcus aureus [36]): 64
3 | CC[C@H]1OC(=O)[C@H](C)[C@@H](O[C@H]2C[C@@](C)(OC)[C@@H](O)[C@H](C)O2)[C@H](C)[C@@H](O[C@@H]2O[C@H](C)C[C@H](N(C)C)[C@H]2O)[C@](C)(OC)C[C@@H](C)C(=O)[C@H](C)[C@@H](O)[C@]1(C)O [CLARITHROMYCIN] | 92.5 | – | – | – | 27.2 to 34.6 | 1 | – | – | – | – | – | 0.88 | 91 | – | – | – | – | 22.4 to 24.8 | 100 | – | PPB (Plasma [37]): 11%
4 | CC[C@H]1OC(=O)[C@H](C)C(=O)[C@H](C)[C@@H](O[C@@H]2O[C@H](C)C[C@H](N(C)C)[C@H]2O)[C@](C)(OC)C[C@@H](C)C(=O)[C@H](C)[C@H]2N(CCCCn3cnc(-c4cccnc4)c3)C(=O)O[C@]12C [TELITHROMYCIN] | – | 0.25 (≈ 0.308 µM) | 42.5 | 5.6 | 7.2 | 0.56 | 75.9 | 0.25 (≈ 0.308 µM) | ≤ 0.125 | ≤ 0.06 | 0.5 | 0.41 | – | ≤ 0.125 | > 64 | 2 (≈ 2.46 µM) | 4 (≈ 4.93 µM) | 5 | – | ≤ 0.06 | fraction unbound [10]: 0.56; bioavailability [38]: 33%; AUC(0-inf) [16]: 3950 ng·h/mL; half-life [24]: 1.7 h; Cmax [26]: 1850 ng/mL; AUC(0-inf) [39]: 2730 ng·h/mL; MIC (Streptococcus pneumoniae [35]): ≤ 0.125 µg/mL; Tmax [40]: 2.3 h; Cmax [41]: 340 ng/mL
